Assay results published in article PMC5380659, “Unique charge-dependent constraint on collagen recognition by integrin α10β1” (Matrix Biology, 2017).
“Also recorded” adds a separate entry of the source.

Columns and labels:
α10β1 [1] = assay: Overall recognition by α10β1 (I domain and C2C12-α10β1 cells, summary); details: abstract and discussion; I domain and/or C2C12-α10β1 cells
Experimental: (§1) I domain adhesion was determined colorimetrically, as described, here termed solid phase binding assay (SPBA). Peptides were coated at 10 μg/ml for 1 h at 22 °C on Immulon-2 HB 96-well plates (Thermo Life Sciences, Basingstoke, UK), and blocked for 1 h with 200 μl of TBS containing 50 mg/ml bovine serum albumin. Wells were washed four times with 200 μl of the adhesion buffer (TBS with 1 mg/ml bovine serum albumin) before adding 100 μl of adhesion buffer containing 10 μg/ml of recombinant GST I domains in the presence of either 2 mM MgCl2 or EDTA for 1 h at room temperature. Wells were washed five times with 200 μl of adhesion buffer containing MgCl2 or EDTA, before adding 100 μl of adhesion buffer containing the anti-GST-HRP conjugate at 1:10,000 dilution for 1 h at room temperature. After washing, colour was developed using an ImmunoPure TMB Substrate Kit (Pierce) according to the manufacturer's instructions.
(§2) The mouse myoblast cell line, C2C12, (control and transfectants, C2C12-α1β1, C2C12-α2β1, C2C12-α10β1 or C2C12-α11β1) was maintained in RPMI medium containing 10% fetal bovine serum, 2 mM glutamine, 100 IU/ml penicillin, 100 μg/ml streptomycin, and 2.5 μg/ml amphotericin. Cells were harvested by centrifugation, washed, and suspended at 0.5 × 10^6/ml in Tris-buffered saline supplemented with 5.5 mM glucose and either 2 mM EDTA or 2 mM MgCl2. SPBA was performed as follows: 100 μl of the cell suspension was added to peptide-coated wells [42] at 20 °C for 60 min. Cell adhesion was determined colorimetrically after lysis, using a lactate dehydrogenase (LDH)-based cell detection kit (Roche Diagnostics) according to the supplier's instructions.
(§3) To quantitate C2C12-α10β1 binding to collagen peptides, we used the impedance-based xCELLigence system (Acea) that allows label-free, dynamic monitoring of cell adhesion in real-time. The assay system expresses the adhesion-dependent rise in well impedance in units of cell index (CI), defined as (Rn − Rb) / 15; where Rn is the electrical impedance of each cell-containing well and Rb is the background impedance of the well with medium alone

C2C12-α10β1 cells [2] = assay: LDH-based SPBA of C2C12-α10β1 cell adhesion; set-up: species or system mouse; details: short THPs, 2 mM Mg^2 +, 1 h, Fig. 4B
Experimental: The mouse myoblast cell line, C2C12-α10β1 clone, expresses α10β1 as its sole collagen-binding integrin [16]. To investigate the binding of α10β1 to collagen in a cellular and whole integrin context, therefore, the adhesion of C2C12-α10β1 cells to Toolkits II and III was performed using two different approaches. First, SPBA was used, with lactate dehydrogenase to report the presence of adherent cells, after lysis, as described in Experimental. […] C2C12-α10B1 cells generally bound more prominently to those weaker peptides that supported just-observable binding of free I-domain. This may reflect avidity of the receptor-populated cell surface for the peptide-coated wells, or perhaps up-regulation of integrin affinity following receptor engagement. It is also possible that some cell binding reflects specific indirect interactions. For example, fibronectin, available either by intrinsic expression or from the serum supplement, binds well to II-44, and can also bind integrin αVβ3 [21].
Fig. 2 Binding of α10β1-transfected C2C12 cells to Collagen Toolkits. 96-well plates were coated with peptides as for Fig. 1, then C2C12-α10β1 cells (5 × 10^4 per well) were added and incubated for 1 h in the presence of either 2 mM MgCl2 or 2 mM EDTA as above. A: binding to Toolkit II. B: binding to Toolkit III.
as §2

[3] = system: collagen-binding integrins; set-up: method as in 3 sources, ref [7], [8] = [7]; PMID 10778855; doi:10.1016/S0092-8674(00)80622-4; 7 Emsley J. Knight C.G. Farndale R.W. Barnes M.J. Liddington R.C. Structural basis of collagen recognition by integrin alpha2beta1 Cell 101 1 2000 47 56 10778855 10.1016/S0092-8674(00)80622-4 || [8]; PMID 16326707; doi:10.1074/jbc.M509818200; 8 Raynal N. Hamaia S.W. Siljander P.R. Maddox B. Peachey A.R. Fernandez R. Foley L.J. Slatter D.A. Jarvis G.E. Farndale R.W. Use of synthetic peptides to locate novel integrin alpha2beta1-binding moti ||| ref [8], [10] = [8]; PMID 16326707; doi:10.1074/jbc.M509818200; 8 Raynal N. Hamaia S.W. Siljander P.R. Maddox B. Peachey A.R. Fernandez R. Foley L.J. Slatter D.A. Jarvis G.E. Farndale R.W. Use of synthetic peptides to locate novel integrin alpha2beta1-binding moti || [10]; PMID 16043429; doi:10.1074/jbc.M502431200; 10 Kim J.K. Xu Y. Xu X. Keene D.R. Gurusiddappa S. Liang X. Wary K.K. Hook M. A novel binding site in collagen type III for the integrins, alpha 1beta 1 and alpha 2beta 1 J. Biol. Chem. 280 2005 32512 ||| ref [11] = [11]; PMID 10986291; doi:10.1074/jbc.M007668200; 11 Xu Y. Gurusiddappa S. Rich R.L. Owens R.T. Keene D.R. Mayne R. Hook A. Hook M. Multiple binding sites in collagen type I for the integrins α1β1 and α2β1 J. Biol. Chem. 275 2000 38981 38989 10986291; details: ref [11]; cited from earlier work
Source text: Many related motifs have now been identified using the Collagen Toolkits developed in this laboratory for the purpose. These are libraries of overlapping peptides of 27 amino acids of collagen primary sequence (guest sequence), flanked ...

C2C12-α10β1 cells [4] = assay: xCELLigence real-time adhesion of C2C12-α10β1 cells; type: cell-based, mouse; details: 2.5 × 10^4 cells/well, 2 mM Mg^2 +, over 1 h, Fig. 3A
Experimental: Fig. 3 Binding of α10β1-transfected C2C12 cells to collagens and selected Toolkit peptides. Peptides or collagens were coated on ePlates as described, then cells were added in the presence of 2 mM Mg^2 + or EDTA, and Cell Index value was collected over 1 h. […] B: time courses are shown of adhesion to selected Toolkit peptides or GPP-10.
as §3
Briefly, C2C12 cells were seeded at 2.5 × 10^4 cells/well in an E-plate (Roche Applied Science) pre-coated with peptides as for SPBA, and CI was measured for up to 2 h.

α10β1 [5] = system: α10β1; set-up: method as in not given; details: ref not given; cited from earlier work
Source text: In the setting of cartilage, collagen III, although enriched in the pericellular environment, is much less abundant than collagen II [22], and its expression increases with age or with th ...

integrin α1β1 = system: integrin α1β1; set-up: method as in 3 sources, ref [4]; PMID 19693543; doi:10.1007/s00441-009-0834-6; 4 Barczyk M. Carracedo S. Gullberg D. Integrins Cell Tissue Res. 339 1 2010 269 280 19693543 10.1007/s00441-009-0834-6 PMC2784866 ||| ref [12] = [12]; PMID 22654115; doi:10.1074/jbc.M112.353144; 12 Hamaia S.W. Pugh N. Raynal N. Nemoz B. Stone R. Gullberg D. Bihan D. Farndale R.W. Mapping of potent and specific binding motifs, GLOGEN and GVOGEA, for integrin alpha1beta1 using collagen toolkits ||| ref not given; details: ref [4]; cited from earlier work
Source text: The collagen-binding integrin family is complete, with four established members, α1β1, α2β1, α10β1 and α11β1. These are highly-conserved, heterodimeric receptors with an important structural feature in common, the presence of an I (inserted) domain which contains the metal ion-dependent adhesion site (MIDAS). The MIDAS is a constellation of electronegative residues at the distal surface of this 200-residue domain that, in the resting, non-ligated state, can co-ordinate a Mg^2 + ion. […] Many related motifs have now been identified using the Collagen Toolkits developed in this laboratory for the purpose. These are libraries of overlapping peptides of 27 amino acids of collagen primary sequence (guest sequence), flanked ... || Why would collagen II differ in this respect?

[6] = system: human recombinant GST-α10 I domain; assay: Solid-phase binding assay (SPBA) of wild-type α10 I domain; details: short THPs, 2 mM Mg^2 +, 1 h, Fig. 4A
Experimental: The α10 I domain was applied to the collagen II and III Toolkits in the presence or absence of Mg^2 +, and was detected using anti-GST, as described in Experimental: data are shown in Fig. 1. The background response is indicated by wells coated with the control peptide, GPP10 (corresponding to the host sequence), or BSA.
as §1

## GLSGER [short triple-helical peptide containing GLSGER]
α10β1 [1]
  Recognition by α10β1, summary: α10β1-positive
C2C12-α10β1 cells [2]
  Adhesion of C2C12-α10β1 cells to short triple-helical peptides: bound strongly
[3]
  Ligand of collagen-binding integrins, weak motifs: weak ligands

## collagen II: intact collagen II
C2C12-α10β1 cells [4]
  Cell adhesion to collagens (Cell Index, endpoint): bound quite well
α10β1 [5]
  Reported binding of α10β1 to collagens: binds

## collagen IV: intact collagen IV
Integrin α1β1
  Preferred ligand of α1β1: preferred ligand
C2C12-α10β1 cells [4]
  Cell adhesion to collagens (Cell Index, endpoint): better
α10β1 [5]
  Reported binding of α10β1 to collagens: better ligand

## GLOGER [short triple-helical peptide containing GLOGER]
[6]
  Binding of α10 I domain to short triple-helical peptides: less well
α10β1 [1]
  Recognition by α10β1, summary: binds α10β1 better than GFOGER, second only to GLOGEN; also recorded: α10β1-positive
C2C12-α10β1 cells [2]
  Adhesion of C2C12-α10β1 cells to short triple-helical peptides: bound strongly
